Reference: patent US12606518B2, “Crystalline form of L-serine and process of preparing same” (ASTROGEN, INC., priority 2024, dated 2026)

How the values were obtained:
[1] = Pharmacokinetic comparison after single oral administration; conditions: 400 mg/kg oral once
[2] = Hygroscopicity test by dynamic vapor absorption (DVS); conditions: 25° C., 2-98% relative humidity
[3] = Thermal stability test (storage at 40° C./75% RH for 8 weeks; HPLC content, visual discoloration, XRD); assay type: physicochemical; conditions: for L-serine content from 0 week: before storage at 40° C./75% RH; for L-serine content from 0 week / L-serine content after 8 weeks: HPLC; for L-serine content after 8 weeks / Change in Crystal / Discoloration: after 8 weeks at 40° C./75% RH; for Change in Crystal: XRD; for Discoloration: visual
Experimental: After 8 weeks, each sample was taken out and the content was analyzed using high-performance liquid chromatography (HPLC), and the presence of discoloration was visually confirmed as shown in FIG. 13. High-Performance Liquid Chromatography Conditions • Equipment: Waters Alliance e2695 • Column: […] 100, 150 mm×4.6 mm×5 μm • Column temperature: 30° C. • Flow rate: 1.0 mL/min • Detection: 210 nm, UV • Injection volume: 10 μL • Total analysis time: 40 mins • Mobile phase: […]

[4] = Saturated solubility in purified water; assay type: physicochemical; conditions: on first addition of purified water
Experimental: Then, 5 mL (or 10 mL) of this solution is taken, and placed into a 50 mL volumetric flask, purified water is filled to the mark and used as a test solution. • f. The test solution is analyzed according to HPLC operating conditions for the test of L-serine content.
b. The resulting solution is left at room temperature for 5 minutes and then vigorously mixed using a vortexer for 30 seconds.
c. The process b is repeated 6 times (about 30 minutes) and then the resultant is left at room temperature until the floating materials are settled.
d. The supernatant of the solution is placed into a 2.0 mL eppendorf tube and is subject to perform centrifugation using a centrifuge at 23° C. and 4,000 rpm for 20 minutes.
e. 1 mL of the supernatant of the solution is taken and placed into a 100 mL volumetric flask, and purified water is filled to the mark. Then, 5 mL (or 10 mL) of this solution is taken and placed into a 50 mL volumetric flask, purified water is filled to the mark, and used as a test solution.
f. The test solution is analyzed according to HPLC operating conditions for the test of L-serine content.

[5] = mice, n=5, after baseline correction, 400 mg/kg

Row | AUC0-12 [1, 5] | AUC0-inf [1, 5] | CI/F [1, 5] | Cmax [1, 5] | MRT0-inf [1, 5] | Tmax [1, 5] | t1/2 [1, 5] | relative humidity at which moisture absorption started [2] | L-serine content from 0 week [3] | L-serine content after 8 weeks [3] | Change in Crystal [3] | Discoloration [3] | Cmax ([1]; mouse, blood, po, 400 mg/kg, Cmax, mice, n=5, after baseline correction) | MRT inf ([1]; mouse, blood, po, 400 mg/kg, MRT0-inf, mice, n=5, after baseline correction) | Tmax ([1]; mouse, blood, po, 400 mg/kg, Tmax, mice, n=5, after baseline correction) | half-life ([1]; mouse, blood, po, 400 mg/kg, t1/2, mice, n=5, after baseline correction) | Remark (hardening phenomenon during dissolution) [4] | difference in maximum blood concentration (Cmax) compared to amorphous form and type A crystalline form ([1]; mice) | increase of AUC0-12 compared to amorphous form and type A crystalline form of L-serine ([1]; mice) | Compound
1 | 165.81 ± 40.99 µg·h/mL | 177.36 ± 39.9 µg·h/mL | 3.19 ± 0.67 (mg/kg)/(μg/mL)/h | 77.69 ± 8.49 µg/mL | 3.44 ± 1.49 h | 0.50 h | 2.56 ± 0.76 h | around 70% | 99.1% → | 93.7% | retained | change to off- | – | – | – | – | – | – | – | N[C@@H](CO)C(=O)O [Comparative Example 2, L-serine]
2 | 100.53 ± 20.15 µg·h/mL | 121.45 ± 17.20 µg·h/mL | 3.35 ± 0.43 (mg/kg)/(μg/mL)/h | – | – | – | – | 40% | 99.0% → | 90.4% | change in part | change to off- | 67.5 ± 25.9 µg/mL | 5.11 ± 0.8 h | 0.25 h | 4.15 ± 0.99 h | – | – | – | N[C@@H](CO)C(=O)O [Comparative Example 1, L-serine]
3 | 248.89 ± 37.34 µg·h/mL | 296.22 ± 69.63 µg·h/mL | 2.11 ± 0.49 (mg/kg)/(μg/mL)/h | 75.48 ± 10.70 µg/mL | 5.29 ± 2.10 h | 0.50 h | 3.56 ± 1.36 h | around 80% | 99.3% → | 99.2% | retained | no change | – | – | – | – | The procedure went smoothly | no significant difference | ≥ 2 times | N[C@@H](CO)C(=O)O [Example 3, L-serine]
